# Square brackets hold non-standard residues; d marks the D form. Ends that are not written are not given here. Peptide text beside a SMILES is read from it. * marks the point of attachment. Phe(3,4-F2) = N[C@@H](Cc1ccc(F)c(F)c1)C(=O)O; Phe(4-Br) = N[C@@H](Cc1ccc(Br)cc1)C(=O)O; Phe(4-NH2) = Nc1ccc(C[C@H](N)C(=O)O)cc1; Dab = NCC[C@H](N)C(=O)O; Nle = CCCC[CH](N)C(=O)O; Abu = CC[C@H](N)C(=O)O; Dap = NC[C@H](N)C(=O)O; X1 = OB(O)C(CCCBr)N*; Ahx = NCCCCCC(=O)O
# Legend:
# LNCaP cells = experiment: KLK activity and expression in LNCaP cells after AR signaling perturbation (streptavidin enrichment and immunoblotting); type: cell-based, human; settings: 10 nM DHT ± 10 μM Enz, 48 h
# Protocol: (B) KLK activity and expression in the LNCaP cell line after treatment with 10 nM DHT ± 10 μM Enz. KLK activity was assessed by streptavidin enrichment of probe-labeled KLK molecules following treatment of conditioned media with 1 μM of either 31, 20, or 39 for 1 h.
# To enable detection of each KLK in WT LNCaP cells, we incubated LNCaP conditioned media with 1 μM of each KLK ABP, enriched labeled proteins on streptavidin beads, and visualized activity levels by immunoblotting with the appropriate KLK antibody (see Figure S19 for workflow).
# Routine cell culture conditions: Wild-type LNCaP cells (passage <15) were grown in RPMI
# Androgen-signaling Experiments: LNCaP cells grown to 80 % confluency in a T175 plate
# were incubated with phenol red-free RPMI media supplemented with 5 % charcoal-stripped
# FBS for 24 h. After 24 h, the media was aspirated, and the cells were incubated with serum-
# free RPMI media (0 % FBS and phenol red-free) supplemented with the appropriate treatment
# condition (10 nM DHT or 10 nM DHT + 10 μM Enzalutamide) for a further 48 h. After 48 h the
# media was collected, passed through a 0.2 μm syringe filter and stored at – 80 °C until needed.
# KLK3 [1] = settings: cited from earlier work
# KLK3 [2] = target: T1, KLK3 (Homo sapiens, UniProt P07288); experiment: Competitive ABPP against 3 in LNCaP conditioned media, densitometry; type: biochemical; settings: LNCaP CM, analogue 1 h then 20 μM 3 for 1 h; 16 analogues tested
# T1 construct: endogenous in cells; host or cells: LNCaP cells treated with 10 nM DHT; conditioned medium
# Protocol: Despite exquisite selectivity, maximal KLK3 labeling was achieved only after treatment with 20 μM 3 for 1 h. We therefore optimized probe potency by systematically modifying each amino acid side chain in the P1–P4 positions of a morpholine-capped peptidyl-DPP inhibitor scaffold and determined the potency of each analogue using competitive-ABPP against 3.[25],[26] LNCaP CM was first incubated with a peptidyl-DPP analogue for 1 h, followed by 1 h treatment with 20 μM 3 to assess the degree of KLK3 inhibition by densitometry (Figures S4 and S5 for fluorescent gels and Figure S6 for structures of each morpholine-capped peptidyl-DPP analogue). […] Second generation biotinylated 20 and fluorescent 21 ABPs (Figures 2G and S7) based on this scaffold retained exquisite selectivity for KLK3 in LNCaP CM, but in contrast to first-generation ABP 3 achieved maximum labeling at only 1 μM and readily detectable labeling down to 130 nM (Figures 2H and S7).
# Figure S4: Typical gel obtained from assessment of the potency of P1 (top) and P2 (bottom) morpholine-DPP analogues against KLK3 using competitive ABPP. […] Residual KLK3 activity was calculated using densitometry (ImageQuant) by comparing to a DMSO treated sample. […]
# KLK14 = target: T2, KLK14 (Homo sapiens, UniProt Q9P0G3); experiment: Determination of kinact/KI, fluorogenic substrate kinetic assay; type: biochemical; settings: for kinact/KI / Kinact/KI KLK14: mean ± SEM (N = 3); for selectivity (fold-change): KLK14 over KLK2
# T2 construct: purchased R&D Systems
# T2 sequence (Q9P0G3 25-251): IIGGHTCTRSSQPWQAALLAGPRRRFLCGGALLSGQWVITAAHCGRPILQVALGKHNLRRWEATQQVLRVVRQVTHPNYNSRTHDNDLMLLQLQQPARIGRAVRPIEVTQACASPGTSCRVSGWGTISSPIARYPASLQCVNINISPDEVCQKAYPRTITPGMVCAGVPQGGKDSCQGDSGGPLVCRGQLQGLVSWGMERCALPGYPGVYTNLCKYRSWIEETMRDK
# KLK2 = target: T3, KLK2 (Homo sapiens, UniProt P20151); experiment: as above; type: biochemical; settings: for selectivity (fold-change): KLK2 over KLK14
# T3 construct: purchased R&D Systems
# Excerpt: 1.1 Chemicals and Reagents
# All chemicals and reagents were purchased from commercial suppliers and used without further purification. Rink Amide resin (100-200 mesh) and 2-Chlorotrityl chloride resin (100-200 mesh, 1% DVB) were obtained from Merck. Natural Fmoc-amino acids were obtained from AGTC Bioproducts Ltd. Unnatural Fmoc-amino acids were obtained from Fluorochem, Alfa Aesar, VWR, Merck, Iris Biotech, Bachem or Sigma Aldrich. Culture media, fetal bovine serum, trypsin, antibiotics and chemicals required for differentiation of osteoprogenitor cells were obtained from Sigma Aldrich, Gibco or Invitrogen. Amicon 3 KDa Centrifugal filter units were obtained from Merck. Recombinant human KLK2 and KLK14 were obtained from R&D Systems and activated using the supplier’s protocol. All remaining chemical reagents were obtained from VWR, Sigma Aldrich or Merck. […]
# Fluorescent plate-based enzymatic assays were carried out using an Envision 2104 Multilabel Plate Reader (PerkinElmer) operating in kinetic mode for a minimum of 20 min with excitation/emission […]
# Specificity […]
# was calculated by normalizing RFUs-1 to the highest value, which was set at 100 %.
# Calculations were made in GraphPad Prism 5.
# Determination of kcat/KM: The KLK2 substrate and KLK14 substrate were serially diluted in the appropriate KLK assay buffer and 25 μL was added to the wells of a 96-well plate. Next, 25 μL of KLK2 (1.5 nM) or KLK14 (75 pM) was added to each well containing the substrate and the enzyme-substrate reaction was monitored for at least 10 min. The linear portion of each progress curve was used to calculate relative fluorescence units per second (RFUs-1).
# KM, kcat, and kcat/KM parameters were determined by nonlinear regression in GraphPad Prism 5 (GraphPad Software). Each experiment was repeated three times and the results are presented as an average ± SEM.
# Determination of kinact/KI: Under pseudo-first order conditions, a fixed amount of KLK2 (1.5 nM) or KLK14 (37 pM) was incubated with peptidyl-DPP analogue at different concentrations in the presence of 5 µM of substrate. The pseudo first-order rate constant, kobs, was calculated for each probe concentration using non-linear regression analysis in GraphPad Prism 5. The obtained values were plotted against probe concentration to afford the apparent second order rate constant kinact(app)/KI. The absolute value of the second order rate constant was then obtained by adjusting for the substrate competition factor (1 + [S]/Km), where S is the concentration of substrate in the assay and KM is the Michaelis Menten constant for that substrate/enzyme reaction.
# 2.5 Cell Migration Assays
# Cell migration: The assay was performed as per the manufacturer’s protocol (https://www.corning.com/catalog/cls/documents/protocols/an_Chemotaxis_protocol.pdf).
# Briefly, LNCaP-WT, LNCaP-mK14 and LNCaP-K14 cells were grown to 80% confluency in RPMI media supplemented with 5 % FBS. The media was then aspirated, the cells were washed with 2 mL PBS (3*) and incubated with serum-free RPMI (without phenol red) supplemented with 10 nM DHT ± 100 ng/mL Dox for 24 h. Cells were trypsinized, washed twice with serum-free RPMI and resuspended in serum-free RPMI. 100,000 cells in 100 µL of serum-free RPMI was then added to the transwell inserts placed in a 24-well plate (Corning […]
# Figure S15: KLK2 and KLK14 substrates. (A) Structures (B) Optimal assay conditions for […]
# S19) inhibitors (C) Michaelis-Menten (K M) and rate (kcat) constants for KLK substrates
# [3] = KLK2 probe optimization series, mean ± SEM (N = 3)
# [4] = KLK14 probe optimization series
# [5] = KLK14 probe optimization series, mean ± SEM (N = 3)
# T3 sequence (P20151 25-261): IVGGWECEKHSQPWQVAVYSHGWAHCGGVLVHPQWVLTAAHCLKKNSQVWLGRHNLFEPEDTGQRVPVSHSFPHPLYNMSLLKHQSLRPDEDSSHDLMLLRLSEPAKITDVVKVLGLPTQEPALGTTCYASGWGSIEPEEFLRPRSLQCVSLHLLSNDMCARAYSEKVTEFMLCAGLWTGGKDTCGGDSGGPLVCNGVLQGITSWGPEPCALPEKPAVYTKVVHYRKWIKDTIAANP
# T1 sequence (P07288 25-261): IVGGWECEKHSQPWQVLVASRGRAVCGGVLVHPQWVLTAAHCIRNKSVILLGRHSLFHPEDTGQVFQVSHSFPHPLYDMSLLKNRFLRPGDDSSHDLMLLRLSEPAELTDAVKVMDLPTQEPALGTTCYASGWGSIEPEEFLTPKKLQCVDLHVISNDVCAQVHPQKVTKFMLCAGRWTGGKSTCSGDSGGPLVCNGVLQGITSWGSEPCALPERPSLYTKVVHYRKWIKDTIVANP
Compound,selectivity (fold-change) (KLK2; KLK2 probe optimization series) [fold],Kinact/KI KLK14 (KLK14; KLK2 probe optimization series) [M^–1 s^–1],Kinact/KI KLK2 (KLK2; [3]) [M^–1 s^–1],Kinact/KI KLK14 (KLK14; [4]) [M^–1 s^–1],other results
"C[C@]12CCC(=O)C[C@@H]1CC[C@@H]1[C@@H]2CC[C@]2(C)[C@@H](O)CC[C@@H]12 [DHT, dihydrotestosterone]",–,–,–,–,KLK14 expression and activity (LNCaP cells): decreased; expression and activity of KLK2 and KLK3 (LNCaP cells): upregulated
O=C(NC(c1ccc(O)cc1)P(=O)(Oc1ccccc1)Oc1ccccc1)OCc1ccccc1 (stereo not shown) [compound 1],–,–,–,–,KLK3 inhibition (in words) (KLK3 [1]): modestly potent inhibitor of KLK3
CCCCC(NC(=O)C(CCC(N)=O)NC(=O)C(CO)NC(=O)C(Cc1ccccc1)NC(=O)CCCCCN)C(=O)NC(CCCBr)B(O)O (stereo not shown) [compound 2] (H-[Ahx]FSQ[Nle]-X1; configuration not given here),–,–,–,–,KLK3 inhibition (in words) (KLK3 [1]): potent and selective KLK3 inhibitor
CCC[C@H](NC(=O)[C@H](CCC(N)=O)NC(=O)[C@H](CC(N)=O)NC(=O)CN1CCOCC1)C(=O)NC(c1ccc(C(N)=O)cc1)P(=O)(Oc1ccccc1)Oc1ccccc1 (stereo partly shown) [compound 15],–,–,–,–,KLK3 inhibition by competitive ABPP (KLK3 [2]): potent KLK3 inhibitor
"CCC(NC(=O)CCCCCNC(=O)CCCCC1SCC2NC(=O)NC21)C(=O)NC(CCN)C(=O)NC(CC1CCCCC1)C(=O)NC(c1ccc(NC(=N)N)cc1)P(=O)(Oc1ccccc1)Oc1ccccc1 (stereo not drawn) [compound 22, Abu-Dab-Cha-Arg]",6,–,–,–,kinact/KI (KLK14; KLK2 probe optimization series): 511 ± 18 M⁻¹ s⁻¹; kinact/KI (KLK2; [3]): 3270 ± 39 M⁻¹ s⁻¹
"CC(OCc1ccccc1)C(NC(=O)CCCCCNC(=O)CCCCC1SCC2NC(=O)NC21)C(=O)NC(CCCCN)C(=O)NC(Cc1cn(Cc2ccccc2)cn1)C(=O)NC(c1ccc(NC(=N)N)cc1)P(=O)(Oc1ccccc1)Oc1ccccc1 (stereo not shown) [compound 32, Thr(Bz)-Lys-His(Bz)-Arg]",–,–,–,–,kinact/KI (KLK14; [4]): 523 ± 46 M⁻¹ s⁻¹
CNC(=O)c1ccc(N2C(=S)N(c3ccc(C#N)c(C(F)(F)F)c3)C(=O)C2(C)C)cc1F [enzalutamide],–,–,–,–,KLK14 expression and activity (LNCaP cells): restored; expression and activity of KLK2 and KLK3 (LNCaP cells): nullified
Abu-Dab-4 Pal-Arg [compound 24],7,390 ± 15,2586 ± 54,–,–
Abu-Dab-Phe(3-CI)-Arg [compound 25],8,443 ± 16,3615 ± 107,–,–
Abu-Lys(TFA)-Tyr-Arg [compound 29],–,–,128 ± 19,–,–
Thr(Bz)-Dab-Abu-Arg [compound 36],–,–,–,18274 ± 680,selectivity (fold-change) (KLK14; [4]): 11 fold; Kinact/KI KLK2 (KLK2; [5]): 1668 ± 60 M^–1 s^–1
Thr(Bz)-Dap-Abu-Arg [compound 37],–,–,–,12636 ± 496,selectivity (fold-change) (KLK14; [4]): 11 fold; Kinact/KI KLK2 (KLK2; [5]): 1162 ± 40 M^–1 s^–1
Thr(Bz)-Lys-Abu-Arg [compound 35],–,–,–,5903 ± 254,selectivity (fold-change) (KLK14; [4]): 25 fold; Kinact/KI KLK2 (KLK2; [5]): 231 ± 9 M^–1 s^–1
Thr(Bz)-Lys-Hse(Bz)Arg [compound 33],–,–,–,1121 ± 54,–
"Thr(Bz)-Lys-Phe(3,4-F2)-Arg [compound 34]",–,–,–,602 ± 33,–
Tyr(Bz)-Dab-Abu-Arg [compound 41],–,–,–,8894 ± 132,selectivity (fold-change) (KLK14; [4]): 91 fold; Kinact/KI KLK2 (KLK2; [5]): 98 ± 4 M^–1 s^–1
[Abu][Dab]WR [compound 27],9,270 ± 5,2374 ± 37,–,–
[Abu][Dab]YR [compound 26],14,552 ± 11,7881 ± 249,–,–
"[Abu][Dab][Phe(3,4-F2)]R [compound 28]",2,2526 ± 173,5653 ± 265,–,–
[Abu][Dab][Phe(4-NH2)]R [compound 23],4,432 ± 15,1659 ± 35,–,–
[Dap][Dab]YR [compound 30],–,134 ± 6,1849 ± 53,–,–
[Phe(4-Br)][Dab][Abu]R [compound 40],–,–,–,20215 ± 570,selectivity (fold-change) (KLK14; [4]): 57 fold; Kinact/KI KLK2 (KLK2; [5]): 350 ± 9 M^–1 s^–1

# Reference: publication PMC9282638, “A Suite of Activity-Based Probes To Dissect the KLK Activome in Drug-Resistant Prostate Cancer” (Journal of the American Chemical Society, 2021)
